Measured values: patent US11350634B2, “Method for preparing biopesticide preparation for preventing and controlling Solenopsis invicta” (GUANGDONG INSTITUTE OF APPLIED […], priority 2017, dated 2022)

Columns and labels:
[1] = test system: Solenopsis invicta worker ants; test: Laboratory virulence test of the Beauveria bassiana/sodium chloride aqueous dispersion of water dispersible granule formulation (with adjuvants); assay type: in vivo; conditions: worker ants dipped about 5 seconds, 96 hours after treatment, 1×10^8/mL spores, NaCl alone 125 mmol/L, FIG. 2
Source text: A totally 30 g of Beauveria bassiana powder formulation and sodium chloride (wherein a mass ratio of the Beauveria bassiana powder formulation to sodium chloride included 5:1.46, 5:4.38; 5:5.84, 5:7.30, 5:8.77, 5:11.69, 5:14.61 g, and 5:17.53, and the Beauveria bassiana powder formulation contained 20 billion Beauveria bassiana spores per gram), 8 g of wetting agent butylnaphtalenesulfonic acid sodium salt, 18 g of dispersant sodium lignosulfonate, 5 g of disintegrant calcium chloride, 2 g of stabilizer disodium hydrogen phosphate, 5 g of binder sodium polyacrylate, and 32 g of carrier diatomite, were weighed out and mixed according to a method for preparing a water dispersible granule formulation (1. The raw materials were mixed evenly according to the formula. 2. The materials were ground using a sand mill after mixed evenly, and subjected to spray granulation after determined to be acceptable. 3. The products were screened using a vibrating screen after the spray granulation, products with unacceptable appearance were returned to the sand mill to be ground again, and products with acceptable appearance were further subjected to quality inspection wherein products with unacceptable quality were also returned to the sand mill to be ground again. 4. Products with acceptable quality were packaged. 5. […]

[2] = test system: Solenopsis invicta worker ants; test: Laboratory virulence test of the combination of Beauveria bassiana and sodium chloride (Embodiment 1 method); assay type: in vivo; conditions: for synergism / effect on the pesticidal effect of Beauveria bassiana: salt added to Beauveria bassiana solution instead of sodium chloride, Embodiment 1 test
Procedure: In the laboratory virulence test, 5 g of Beauveria bassiana powder formulation was dissolved in 1 L of water and mixed well to give a Beauveria bassiana solution. The used Beauveria bassiana powder formulation contained 20 billion/g of Beauveria bassiana spores. 9 Beauveria bassiana solutions, 100 mL each, were taken from the IL Beauveria bassiana solution, and respectively added with NaCl so that NaCl concentrations in the 9 Beauveria bassiana solutions were: 0 mmol/L, 25 mmol/L, 75 mmol/L, 100 mmol/L, 125 mmol/L, 150 mmol/L, 200 mmol/L, 250 mmol/L, and 300 mmol/L, and thereby Beauveria bassiana/sodium chloride aqueous dispersions were obtained, wherein the Beauveria bassiana spores were present in a concentration of 1×10^8/mL.
The Beauveria bassiana solution, the Beauveria bassiana/sodium chloride aqueous solution, a sodium chloride solution (125 mmol/L), and sterile water were respectively tested for virulence against healthy Solenopsis invicta worker ants, with 3 replicates for each treatment, 1 petri dish in each replicate, and 100 Solenopsis invicta worker ants in each petri dish. […] Data statistical analysis was performed using SPSS 13.0 software, significance testing between samples was performed using the Duncan's method, wherein different lowercase letters indicate a significant difference (P<0.05) in cumulative mortality of the treated Solenopsis invicta.

[Cl-].[Na+] [NaCl, sodium chloride] was tested. Which “96 h cumulative mortality / pesticidal effect” value [1] did it give?
Its value is “no killing effect”.

And the “96 h cumulative mortality / pesticidal effect” value ([2]; worker ants dipped about 5 seconds, 96 hours after treatment, 1×10^8/mL spores, NaCl alone 125 mmol/L, no adjuvants, FIG. 1)?
Its value is “no killing effect”.

How did the “synergism / effect on the pesticidal effect of Beauveria bassiana” value (“synergism / effect” for short) [2] turn out when [Ca+2].[Cl-].[Cl-] [calcium chloride] was run?
Its value is “no significant difference”.

How did the “synergism / effect” value [2] turn out when [Cl][Fe]([Cl])[Cl] [ferric chloride] was run?
Its value is “no significant difference”.

How did the “synergism / effect” value [2] turn out when [Cl-].[Cl-].[Mg+2] [magnesium chloride] was run?
The value was “no significant difference”.

How did the “synergism / effect” value [2] turn out when [Cl-].[K+] [potassium chloride] was run?
The value was “no significant difference”.
